Laboratory results as given in PMC10304470, “Characterization of the Antimicrobial Activities of Trichoplusia ni Cecropin A as a High-Potency Therapeutic against Colistin-Resistant Escherichia coli” (Pharmaceutics, 2023).
Like-named read-outs stand apart in the source and are kept apart here. Ends that are not written are not given here. Peptide text beside a SMILES is read from it.

Key:
[1] = system: colistin-resistant E. coli NMA 1557 (ColREC 1557); assay type: cell-based, Escherichia coli; details: MH broth, 2 × 10^5 cells/mL, 16 h, 37 °C, OD600, >95% killing
Description: (§1) E. coli (KCTC 1682) was obtained from the Korean Collection for Type Cultures (KCTC, Jeongeup, Republic of Korea), and Acinetobacter baumannii (KCCM 40203) and Pseudomonas aeruginosa (KCCM 11328) from the Korea Culture Center of Microorganisms (KCCM, Seoul, Republic of Korea). Klebsiella pneumoniae (NCCP 16054), colistin-resistant E. coli NMA 1557 (ColREC 1557), NMS 12 (ColREC 12), and colistin-resistant A. baumannii NMS 1915 (ColRAB 1915), as well as colistin-resistant K. pneumoniae NMS 139 (ColRKP 139), were obtained from the National Institute of Health Multidrug Resistant Bacteria Specialized Pathogen Resources Bank (Osong, Republic of Korea).
(§2) The antibacterial abilities of the peptides (T. ni cecropin, cecropin A, polymyxin B, colistin, and melittin) were determined using the broth dilution method as previously reported. The peptides dissolved at 10 mg/mL in deionized water were serially diluted from 64 μM to 0.5 μM in 96-well plates using Mueller–Hinton (MH) broth, and bacteria cultured to exponential growth were added at 2 × 10^5 cells/mL. The group of bacteria that grew untreated in the broth was set as the positive control, and the uninoculated broth as the negative control. Dissolved peptides are colorless and equal to the OD value of the medium only. After 16 h incubation at 37 °C, the absorbance at 600 nm was measured using a SpectraMAX microplate reader (Molecular Devices, San Jose, CA, USA).

[2] = system: colistin-resistant E. coli NMS 12 (ColREC 12); assay type: cell-based, Escherichia coli; details: MH broth, 2 × 10^5 cells/mL, 16 h, 37 °C, OD600, >95% killing
Description: as §1, §2

[3] = system: Acinetobacter baumannii (KCCM 40203); assay type: cell-based
Description: as §1, §2

[4] = system: Klebsiella pneumoniae (NCCP 16054); assay type: cell-based
Description: as §1, §2

[5] = system: colistin-resistant A. baumannii NMS 1915 (ColRAB 1915); details: MH broth, 2 × 10^5 cells/mL, 16 h, 37 °C, OD600, >95% killing
Description: as §1
as §2, with “The” for “The antibacterial abilities of the peptides (T. ni cecropin, cecropin A, polymyxin B, colistin, and melittin) were determined using the broth dilution method as previously reported. The”

[6] = system: colistin-resistant K. pneumoniae NMS 139 (ColRKP 139); assay type: cell-based, Klebsiella pneumoniae; details: MH broth, 2 × 10^5 cells/mL, 16 h, 37 °C, OD600, >95% killing
Description: as §1, §2

[7] = system: sheep red blood cells (sRBCs); experiment: Hemolysis; assay type: cell-based; details: 1 h, 37 °C
Experimental: Sheep red blood cells (sRBCs; KisanBio, Seoul, Republic of Korea) were added to three volumes of phosphate-buffered saline (PBS; 35 mM phosphate buffer containing 150 mM NaCl, pH 7.4) and centrifuged five times at 4 °C, 1000× g for 5 min, followed by a final suspension in PBS at 4% (w/v). Peptides serially diluted from 100 μM to 3.1 μM in PBS at 100 μL in a 96-well plate were prepared, and an equal volume of blood solution was added. After incubation at 37 °C for 1 h, the plates were centrifuged for 5 min at 4 °C, 1000× g. The absorbance of the supernatant was measured at 405 nm. The 100% hemolysis control was 0.1% Triton-X 100 added to the blood solution; the negative control was blood solution added to PBS.

L-929 cells = experiment: Cytotoxicity, WST-8; assay type: cell-based, mouse; details: 24 h; for viability / survival rate: up to 100 μM peptide
Experimental: (§3) Murine macrophage RAW 264.7 cells and mouse fibroblast L-929 cells were used for research and were purchased from the Korea Cell Line Bank (Seoul, Republic of Korea). Both cells were cultured in Dulbecco’s Modified Eagle’s Medium (DMEM; Welgene, Gyeongsan, Republic of Korea) supplemented with 10% fetal bovine serum and 1% antibiotics (penicillin/streptomycin) at 37 °C in the presence of 5% CO2. To measure the cytotoxicities of peptides against RAW 264.7 cells and L-929 cells, both cell lines were seeded at a density of 1 × 10^5 cells/well in a 96-well plate, to which each concentration of peptide solution (from 1.6 μM to 100 μM) was added, followed by incubation for 22 h. Subsequently, WST-8 (Biomax Co., Ltd., Guri, Republic of Korea) was added at 10% volume of the final solution, and the mixture was incubated for an additional 2 h. Absorbance was measured at 450 nm. Percentages were calculated based on untreated cells.

E. coli (KCTC 1682) = assay type: cell-based, Escherichia coli
Description: as §1, §2

[8] = system: Pseudomonas aeruginosa (KCCM 11328); assay type: cell-based
Description: as §1, §2

all bacterial strains = experiment: Average MIC over all strains and relative selective index; assay type: cell-based; details: 8 strains; MIC above 64 μM taken as 128 μM
Experimental: as §2

RAW 264.7 cells = experiment: Cytotoxicity, WST-8; assay type: cell-based, mouse; details: 100 μM peptide, 24 h
Experimental: as §3

ColREC 1557 = assay type: cell-based, Escherichia coli; details: 16 h, crystal violet
Experimental: (§4) To quantify the biofilm inhibitory activity of each peptide, ColREC 1557 and ColREC 12 were cultured in Luria–Bertani (LB) broth overnight and then sub-cultured in MH broth. Different concentrations of peptide (from 1 μM to 64 μM) were prepared in 96-well plates using MH broth (containing 0.2% glucose) and incubated with bacteria (2 × 10^5 cells/mL) at 37 °C for 16 h. After incubation, the culture medium was removed and methanol was added as a fixative for 15 min. The completely dried plates were stained for 2 h by adding 100 μL of staining solution (0.1% (w/v) crystal violet in 0.25% (v/v) acetic acid). The residual staining solution was gently rinsed off three times using distilled water. Subsequently, 90% ethanol was used to dissolve the dye, and absorbance was measured at 600 nm. The untreated bacterial group was used as a control to compare biofilm production rates.

ColREC 12 = experiment: Biofilm inhibition assay, crystal violet; assay type: cell-based, Escherichia coli; details: ColREC 12, 2 μM peptide, 16 h
Experimental: as §4

TLR4/MD-2 complex = target: T1, TLR4/MD-2 complex (Homo sapiens, UniProt O00206+Q9Y6Y9); experiment: Surface plasmon resonance (SPR); assay type: binding; details: Biacore T200, CM5 chip, PBS with 0.05% Tween 20, 25 °C, read-out: equilibrium constant (KD) for TLR4/MD2
T1 construct: purchased R&D Systems
Experimental: Binding affinity measurements of the peptide to TLR4/myeloid differentiation factor 2 (MD-2) protein (R&D Systems) were performed on a Biacore T200 instrument (GE Healthcare, Danderyd, Sweden). The receptor was covalently bound to the carboxymethylated sensor chip surface using standard NHS/EDC coupling procedures. The sensor chip (Sensor Chip CM5; Cytiva, MA, USA) was loaded with 30 μg/mL of protein in sodium acetate buffer (pH 4.0) to a resonance value of 2500. Measurements were performed at a flow rate of 30 μL/min with increasing concentrations of peptide dissolved in PBS containing 0.05% Tween 20 at 25 °C. Analysis was performed using Biacore T200 Evaluation Software 3.0 (GE Healthcare, Chicago, IL, USA).

[9] = Limulus amebocyte lysate (LAL) assay, LPS neutralization; assay type: biochemical; details: LPS 2 ng/mL, 10 min, 37 °C
Experimental: To investigate the LPS-neutralizing activity, LAL assays were performed according to the protocol provided in the LAL assay kit (ToxinSensor™ Chromogenic LAL Endotoxin Assay Kit; GenScript, Piscataway, NJ, USA). Briefly, peptides diluted from 50 μM to 1.6 μM in LAL reagent water were incubated with LPS (2 ng/mL) for 10 min at 37 °C. LAL enzyme was then added and incubated under the same conditions. Substrate was added to react, after which three kinds of stop solutions were added in order. Absorbance (545 nm) was measured and quantified using an endotoxin standard graph.

[10] = A. baumannii, MH broth, 2 × 10^5 cells/mL, 16 h, 37 °C, OD600, >95% killing
[11] = K. pneumoniae, MH broth, 2 × 10^5 cells/mL, 16 h, 37 °C, OD600, >95% killing
[12] = E. coli, MH broth, 2 × 10^5 cells/mL, 16 h, 37 °C, OD600, >95% killing
[13] = P. aeruginosa, MH broth, 2 × 10^5 cells/mL, 16 h, 37 °C, OD600, >95% killing

T1 sequence (O00206 24-631 limits assumed): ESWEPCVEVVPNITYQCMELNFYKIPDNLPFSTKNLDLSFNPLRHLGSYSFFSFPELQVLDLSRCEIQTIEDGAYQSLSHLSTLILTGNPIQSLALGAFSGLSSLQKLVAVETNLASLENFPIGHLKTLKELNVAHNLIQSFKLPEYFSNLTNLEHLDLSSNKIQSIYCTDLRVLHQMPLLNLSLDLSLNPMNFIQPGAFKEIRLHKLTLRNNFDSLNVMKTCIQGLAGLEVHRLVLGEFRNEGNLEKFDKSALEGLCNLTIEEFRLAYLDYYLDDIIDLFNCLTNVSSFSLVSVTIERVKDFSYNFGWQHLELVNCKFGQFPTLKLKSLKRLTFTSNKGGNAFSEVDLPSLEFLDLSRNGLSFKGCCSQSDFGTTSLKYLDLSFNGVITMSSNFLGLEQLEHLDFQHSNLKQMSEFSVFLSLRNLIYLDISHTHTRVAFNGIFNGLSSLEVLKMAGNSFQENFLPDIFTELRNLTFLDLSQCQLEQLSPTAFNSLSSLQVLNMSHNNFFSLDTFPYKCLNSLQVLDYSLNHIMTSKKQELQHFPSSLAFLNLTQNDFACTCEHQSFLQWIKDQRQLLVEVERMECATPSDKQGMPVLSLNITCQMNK
T1 sequence (Q9Y6Y9 17-160 limits assumed): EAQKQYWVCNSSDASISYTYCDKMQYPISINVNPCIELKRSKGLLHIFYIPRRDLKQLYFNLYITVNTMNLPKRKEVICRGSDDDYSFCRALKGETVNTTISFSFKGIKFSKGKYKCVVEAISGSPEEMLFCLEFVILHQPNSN

Compound | Minimal Inhibitory Concentration [1] | Minimal Inhibitory Concentration [2] | Minimal Inhibitory Concentration [3, 10] | Minimal Inhibitory Concentration [4, 11] | Minimal Inhibitory Concentration [5] | Minimal Inhibitory Concentration [6] | GM (geometric mean, average MIC value of all bacterial strains) (all bacterial strains) | viability / survival rate (L-929 cells) | cell viability (RAW 264.7 cells) | Minimal Inhibitory Concentration (E. coli (KCTC 1682); [12]) | Minimal Inhibitory Concentration [8, 13] | inhibition of biofilm formation (ColREC 12) | other results
CC[C@H](C)[C@H](NC(=O)CN)C(=O)NCC(=O)N[C@@H](C)C(=O)N[C@H](C(=O)N[C@@H](CC(C)C)C(=O)N[C@@H](CCCCN)C(=O)N[C@H](C(=O)N[C@@H](CC(C)C)C(=O)N[C@H](C(=O)N[C@H](C(=O)NCC(=O)N[C@@H](CC(C)C)C(=O)N1CCC[C@H]1C(=O)N[C@@H](C)C(=O)N[C@@H](CC(C)C)C(=O)N[C@H](C(=O)N[C@@H](CO)C(=O)N[C@@H](Cc1c[nH]c2ccccc12)C(=O)N[C@H](C(=O)N[C@@H](CCCCN)C(=O)N[C@@H](CCCNC(=N)N)C(=O)N[C@@H](CCCCN)C(=O)N[C@@H](CCCNC(=N)N)C(=O)N[C@@H](CCC(N)=O)C(=O)N[C@@H](CCC(N)=O)C(N)=O)[C@@H](C)CC)[C@@H](C)CC)[C@@H](C)O)[C@@H](C)O)C(C)C)C(C)C [melittin] | 2 µM | 2 µM | 4 µM | 32 µM | 2 µM | 32 µM |  |  |  |  |  |  | hemolytic activity ([7]; 3.1 μM peptide): 8.2%; hemolytic activity ([7]; 12.5 μM peptide): 84.3%; survival rate (L-929 cells; 1.6 μM peptide): below 5%
CC[C@H](C)CCCCC(=O)N[C@@H](CCN)C(=O)N[C@H](C(=O)N[C@@H](CCN)C(=O)N[C@H]1CCNC(=O)[C@H]([C@@H](C)O)NC(=O)[C@H](CCN)NC(=O)[C@H](CCN)NC(=O)[C@H](CC(C)C)NC(=O)[C@@H](Cc2ccccc2)NC(=O)[C@H](CCN)NC1=O)[C@@H](C)O [polymyxin B] (HELM PEPTIDE1{[CC[C@H](C)CCCCC(=O)[*:2]].[Dab].T.[Dab].[Dab].[Dab].[dF].L.[Dab].[Dab].T}$PEPTIDE1,PEPTIDE1,5:R3-11:R2$$$V2.0; N-terminus assumed; bridges inferred) | 8 µM | 4 µM |  |  | 64 µM | 64 µM | 17.88 µM | 96.0% | 31.3% |  |  |  | Minimal Inhibitory Concentration (E. coli (KCTC 1682); KCTC 1682, 16 h): 0.25 µM; Minimal Inhibitory Concentration ([3]; KCCM 40203, 16 h): 0.5 µM; Minimal Inhibitory Concentration ([4]; NCCP 16054, 16 h): 0.25 µM; Minimal Inhibitory Concentration ([8]; KCCM 11328, 16 h): 2 µM
RWKFFKKIEKVGQNIRDGIIKAGPAVAVVGQAASITGK-NH2 [T. ni cecropin] | 1 µM | 1 µM | 1 µM | 1 µM | 1 µM | 2 µM | 1.63 µM | 95% | 93.6% | 2 µM | 4 µM | 82.5% | hemolytic activity ([7]; 100 μM peptide): no hemolytic activity; inhibition of biofilm formation (ColREC 1557; ColREC 1557, 2 μM peptide): 75.3%; inhibition of biofilm formation (ColREC 1557; ColREC 1557, 4 μM peptide): over 90%; Kd (TLR4/MD-2 complex): 558 nM
LL-37 |  |  |  |  |  |  |  |  |  |  |  |  | peptide concentration nearly neutralizing 10 enzyme units (EU) of LPS [9]: 12.5 µM
KWKLFKKIEKVGQNIRDGIIKAGPAVAVVGQATQIAK-NH2 [cecropin A] | 1 µM | 1 µM | 2 µM | 1 µM | 1 µM | 2 µM | 2.25 µM |  |  | 2 µM | 8 µM | 80.8% | 
